Assay results published in patent publication US9296778B2, “3′,5′-cyclic phosphate prodrugs for HCV infection” (Idenix Pharmaceuticals, Inc., priority 2012, dated 2016).
pEC50: −log10 of the molar value.

Columns and labels:
HCV genotype 1b replicon = assay: HCV Replicon Assay; assay type: cell-based; conditions: Hepatitis C virus, 72 h, read-out: HCV Replicon EC50
Procedure, shortened: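 Zluc Huh-7 cells with HCV genotype 1b replicon and luciferase reporter treated with 5-fold dilutions (100 μM to 0.0000512 μM final) in duplicate, or at 1 and 10 μM. Luminescence read with ONE-glo; EC50 from dose-response fits, or % inhibition at the fixed concentrations.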

[1] = cytotoxicity evaluation (CellTiter-Blue Cell Viability Assay); conditions: human
Huh-7 cells = assay: Release of active metabolite in Huh-7 cells; assay type: in vitro ADME, human; conditions: Huh-7 cells, AUC0-72
Description: Huh-7 cells were plated in 1 mL culture medium (DMEM, containing glucose, L-glutamine and sodium pyruvate, 10% FBS, 100 IU/mL penicillin, 100 μg/mL streptomycin, 2 mM GlutaMAX, 1% MEM non-essential amino acids) at the concentration 0.8, 0.4 and 0.2 million cells per well on 6 well plates for 24, 48 and 72 hr treatment, respectively. Plated cells were incubated overnight at 37° C. in an incubator.
The following morning compounds was diluted to 20 μM from a stock solution in DMSO in fresh culture medium pre-warmed to 37° C. and 1 mL of the solution/well was added to cells. A final medium volume per well was 2.0 mL, Compound concentration in well was 10 μM and final DMSO concentration was 0.1%.
After 24, 48 or 72 hr, the medium was carefully removed and cell monolayers were washed twice with 2 mL ice-cold PBS per well. Following the last wash, all PBS was carefully removed and 1.0 mL of extraction solution (ice-cold 70% methanol) added. The plate was tightly covered with Parafilm, plastic plate cover and Parafilm again and an intracellular content was extracted at −20° C. for 24 hr.
After 24 hr extracts were transferred into polypropylene microfuge tubes and dried on a refrigerated centrivap concentrator. Dry residues were reconstituted in 250 μL of HPLC-grade water and centrifuged at 16,000×g for 10 min. Aliquots (100 μL each) of the supernatants were transferred into a 96 well plate and internal standard (4 ng/mL final concentration) was added as the internal standard (IS) for LC-MS/MS analysis.

cathepsin A (CatA) = target: T1, cathepsin A (CatA) (Homo sapiens, UniProt P10619); assay: CatA hydrolysis assay; assay type: in vitro ADME; conditions: 100 μM compound, 37° C., 18 h
T1 construct: purchased R & D Systems (Minneapolis, Minn.)
T1 sequence (P10619 29-326 limits assumed): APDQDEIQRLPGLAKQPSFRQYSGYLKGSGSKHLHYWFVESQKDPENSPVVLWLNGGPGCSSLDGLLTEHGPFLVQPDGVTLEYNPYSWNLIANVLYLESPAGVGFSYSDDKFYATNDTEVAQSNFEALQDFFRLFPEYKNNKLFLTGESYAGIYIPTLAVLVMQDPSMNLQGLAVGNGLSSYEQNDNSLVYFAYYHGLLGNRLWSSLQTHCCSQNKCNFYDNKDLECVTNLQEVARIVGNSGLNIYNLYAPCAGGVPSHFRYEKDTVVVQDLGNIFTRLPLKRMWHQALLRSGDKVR
T1 sequence (P10619 327-480 limits assumed): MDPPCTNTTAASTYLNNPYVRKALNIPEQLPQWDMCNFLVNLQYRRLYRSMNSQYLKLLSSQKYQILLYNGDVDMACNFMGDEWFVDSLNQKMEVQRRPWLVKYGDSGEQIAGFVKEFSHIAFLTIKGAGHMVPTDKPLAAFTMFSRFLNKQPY
Description: CatA, cathepsin L (CatL) and CES1 were purchased from R & D Systems (Minneapolis, Minn.). Prior to the enzymatic hydrolysis reactions, CatA was activated according to the manufacturer's instruction. Briefly, CatA (0.05 μg/μL) was incubated with CatL (0.005 μg/μL) for 30 min at 37° C. in 25 mM MES pH 6.0 containing 5 mM DTT. The reaction was stopped by addition of the CatL specific inhibitor E64 (10 μM).
The CatA assay was performed at 37° C. The reaction mixture contained 25 mM MES buffer pH 6.0, 100 mM NaCl, 4 mM DTT and 100 μM of the compound. The reaction was started by addition of the activated CatA enzyme to a final concentration of 0.005 μg/μL. One hundred-μL aliquots were taken after 0.5 min, 3 hrs and 18 hrs of incubation. Reactions were stopped by mixing the sample with an equal volume of ice-cold methanol, and were loaded on a HPLC for analysis.
(§1) Samples were analyzed by HPLC using 5μ C-18, 4.6×250 mm Phenomenex® Columbus column (Phenomenex USA, CA). The mobile phase consisted of buffer A (25 mM potassium phosphate with 5 mM tetrabutylammonium dihydrogen phosphate pH 6.3) and buffer B (100% methanol).

[2] = target: T2, carboxylesterase 1 (CES1) (Homo sapiens, UniProt P23141); assay: CES1 hydrolysis assay; assay type: in vitro ADME; conditions: for CES1 hydrolysis: 100 μM compound, 37° C.
T2 construct: purchased R & D Systems (Minneapolis, Minn.)
T2 sequence (P23141 18-567): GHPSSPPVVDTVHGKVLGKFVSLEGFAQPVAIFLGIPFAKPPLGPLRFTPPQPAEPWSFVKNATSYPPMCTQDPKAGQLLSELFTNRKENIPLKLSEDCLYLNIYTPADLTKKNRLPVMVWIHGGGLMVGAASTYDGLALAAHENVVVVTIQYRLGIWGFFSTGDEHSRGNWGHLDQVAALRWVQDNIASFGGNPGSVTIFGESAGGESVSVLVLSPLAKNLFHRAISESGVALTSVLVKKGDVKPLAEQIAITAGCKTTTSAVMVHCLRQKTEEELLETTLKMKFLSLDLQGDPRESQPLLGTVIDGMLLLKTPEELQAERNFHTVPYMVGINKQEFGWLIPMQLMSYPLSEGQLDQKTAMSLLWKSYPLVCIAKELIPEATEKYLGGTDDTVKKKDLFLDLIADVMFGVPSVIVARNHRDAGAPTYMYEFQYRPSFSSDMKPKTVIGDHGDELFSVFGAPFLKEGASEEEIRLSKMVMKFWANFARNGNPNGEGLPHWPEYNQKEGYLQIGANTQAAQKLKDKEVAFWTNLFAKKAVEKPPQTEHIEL
Description: CES1 assay was performed at 37° C. in the reaction mixture containing 50 mM Tris/HCl buffer pH 7.5 and 100 μM of the compound. Reaction was started by addition of the CES1 to the final concentration 0.01 μg/mL. 100 μL aliquots were taken after 0.5 min, 3 hrs and 21 hrs of the incubation and the reaction was stopped by mixing with 100 μl of the ice-cold methanol prior to HPLC analysis.
as §1

genotype 1b HCV replicon = assay: genotype 1b HCV replicon-bearing Huh-7 cells (Table 5); assay type: cell-based
Description: In vivo Z4 and Z2 appear to be effectively liver-targeted with a high liver:plasma ratio of drug metabolites. Both prodrugs are readily converted to the triphosphate (TP) metabolite in the liver of mice and monkey producing more TP than GS-7977. […] The in vitro antiviral inactivity of Z4 and Z2 is thought to reflect an inability of Huh-7 replicon cells to metabolize the prodrug moiety.

Liver TP (Table 5) = assay type: in vivo

Question: With CCOc1nc(N)nc2c1ncn2[C@@H]1O[C@@H]2COP(=O)(Oc3ccc(C[C@H](NC(=O)OC)C(=O)OC(C)C)cc3)O[C@H]2[C@@]1(C)F (stereo partly drawn) [Compound 13] as the compound, how does the pEC50 (HCV genotype 1b replicon) read?
Answer: > 6.60

Question: What about the CC50 [1] of the same compound?
Answer: > 50 µM

Question: Which “Huh-7 AUC0-72” value (Huh-7 cells) does the source give for CC(C)OC(=O)[C@H](C)N[P@@](=O)(OC[C@H]1O[C@@H](n2ccc(=O)[nH]c2=O)[C@](C)(F)[C@@H]1O)Oc1ccccc1 [PSI-7976] here?
Answer: 6527 pmol * hr/10^6cells

Question: And the CatA hydrolysis (cathepsin A (CatA))?
Answer: 10% @ 18 h

Question: And the “hydrolysis by CES1 (in words)” value [2]?
Answer: preferentially hydrolyzed

Question: What about the CES1 hydrolysis ([2]; 3 h) of the same compound?
Answer: 56%/3 h;

Question: What about the CES1 hydrolysis ([2]; 21 h) of the same compound?
Answer: 94%/21 h

Question: And the pEC50 (genotype 1b HCV replicon)?
Answer: 5.68

Question: What about the “Liver TP” value (Liver TP (Table 5)) of the same compound?
Answer: 310 pmol·h/g
